Reference: patent US7833785B2, “Method for chemical dissociation of cells from physical surfaces” (priority 2004, dated 2010)
Counter-ions that a name gives are not always drawn.

Tests used:
in vitro [1] = settings: mouse, Average Cell Viability
Method: (§6) The viable cell concentration, viabilities, and fold increase in number of viable cells for mouse neurospheres exposed to different acidic neutralizing solutions following chemical dissociation. The aggregates were dissociated into a single cell suspension using an NaOH based dissociation solution. Acidic neutralizing solutions generated using a variety of acids (listed in table) were then added to counteract the high pH of the dissociation medium. Cell counts and viabilities were determined by trypan blue exclusion. Cells were serially subcultured for 4 passages in 25 cm^2 tissue culture flasks containing 5 mL of PPRF-m4 medium. The flasks were maintained in a humidified 37° C. incubator containing 5% CO2 (Average values, n=3).
(§7) All of the experiments conducted to test the effect of different neutralizing solutions employed an NaOH based dissociation medium to dissociate the cells.
(§8) Passage 3 mouse neurospheres originally procured from the striata of 14 day old embryonic mice were thawed and passaged twice (passage 5) in PPRF-m4 medium. These neuropsheres samples were previously dissociated by mechanical dissociation at each passage prior to being used for the experiments described here. Passage 5 mouse neurospheres were isolated and centrifuged (10 minutes, 140 g) to form a cell pellet in a 15 mL centrifuge tube. The supernatant was completely removed. The aggregates were then resuspended in 200 μL of fresh PPRF-m4 medium at room temperature by pipetting the cell pellet 5 times. 200 μL of an NaOH based alkaline dissociation medium was then added to the tube, and a stopwatch was used to time the procedure for 7 minutes. After 2 minutes and 5 minutes had elapsed, the cells were gently pipetted 5 times. After 7 minutes had elapsed, 200 μL of an acidic neutralizing medium was added to the mixture to decrease the pH, and the sample was gently pipetted 5 more times. […] The cell concentration and viability of the resulting cell suspension was determined using trypan blue exclusion, and the single cells were inoculated at 7.5×10^5 cells/mL into 25 cm^2 tissue culture flasks to determine if the neutralizing solution inhibited the cells from proliferating (Table 3). The cells were subsequently serially subcultured using the same neutralizing solution to which they had previously been exposed.

mouse neurospheres [2] = assay: Different acidic neutralizing solutions after NaOH dissociation of mouse neurospheres; trypan blue exclusion, serial subculture; settings: for Average Viable Cell Conc.: NaOH dissociation, acid as neutralizing solution; for Average Viable Cell Conc. / Average Cell Viability: n=3; for Average Cell Viability: trypan blue exclusion
Method: as §6, §7, §8

in vitro [3] = settings: mouse, Average Cell Viability; remark: listed apart in the source
Method: (§1) Table 2. […] Following dissociation, the pH was reduced by using neutralizing solution generated using HCl.
(§2) In order to counteract the pH effect of the alkaline dissociation solutions on the cells, an appropriate quantity of acidic medium was added.
(§3) The supernatant was completely removed. […] A volume of 200 μL was added to those samples dissociated with sodium hydroxide, potassium hydroxide or sodium phosphate tribasic dodecahydrate. A volume of 300 μL was added to those samples dissociated using ammonium hydroxide. […] Following the addition of the acidic medium, the cell sample was gently pipetted 5 more times.

mouse neurospheres [4] = assay: Dissociation of mouse neurospheres using different alkaline solutions; trypan blue exclusion, serial subculture; settings: for Average Viable Cell Conc.: base in PPRF-m4, neutralized with HCl; for Average Viable Cell Conc. / Average Cell Viability: n=3; for Fold Increase in number of viable cells: inoculated at 0.75×10^5 cells/mL; for Average Cell Viability: trypan blue exclusion
Method: as §1, §2, §3

[5] = tested on: mouse embryonic stem cells; assay: Detachment and dissociation of mouse embryonic stem cells using different bases in PBS with 10 mM EDTA; trypan blue exclusion; settings: for Average Viable Cell Conc.: base in 1×PBS with 10 mM EDTA; for Average Viable Cell Conc. / Average Cell Viability: n=3; for Fold Increase in number of viable cells: inoculated at 3.13×10^4 cells/mL; for Average Cell Viability: trypan blue exclusion
Method: (§4) A total of five different dissociation solutions were tested for their ability to detach and dissociate mouse embryonic stem cells. Each solution was made by adding a different base to a basal solution (1×PBS solution containing 10 mM EDTA).
(§5) A volume of 2.0 mL of the appropriate dissociation solution was then added to each 25 cm^2 tissue culture flask, and the flasks were placed in an incubator at 37° C. The flasks were rocked intermittently over a period of 22 minutes after which gentle pipetting was used to break up any remaining clumps of cells. The cell suspension was collected and added to a sterile 15 mL tube containing 5.0 mL of medium and then centrifuged for 5 minutes at 1000 rpm. […] After centrifugation, the supernatant was discarded and the pellet was resuspended in 1.0 mL of medium.

in vitro [6] = settings: mouse, Average Cell Viability; remark: listed apart in the source
Method: as §4, §5

Row | Compound | Fold Increase in number of viable cells (mouse neurospheres [2]; passage 1) | Average Viable Cell Conc. (mouse neurospheres [2]; passage 1) | Fold Increase in number of viable cells (mouse neurospheres [2]; passage 2) | Average Viable Cell Conc. (mouse neurospheres [2]; passage 2) | Fold Increase in number of viable cells (mouse neurospheres [2]; passage 3) | Average Viable Cell Conc. (mouse neurospheres [2]; passage 3) | Fold Increase in number of viable cells (mouse neurospheres [2]; passage 4) | Average Viable Cell Conc. (mouse neurospheres [2]; passage 4) | Average Viable Cell Conc. (mouse neurospheres [4]; passage 1) | Fold Increase in number of viable cells (mouse neurospheres [4]; passage 1) | Average Viable Cell Conc. (mouse neurospheres [4]; passage 2) | Fold Increase in number of viable cells (mouse neurospheres [4]; passage 2) | Average Viable Cell Conc. (mouse neurospheres [4]; passage 3) | Fold Increase in number of viable cells (mouse neurospheres [4]; passage 3) | Average Viable Cell Conc. (mouse neurospheres [4]; passage 4) | Fold Increase in number of viable cells (mouse neurospheres [4]; passage 4) | Average Viable Cell Conc. ([5]; passage 1) | Average Viable Cell Conc. ([5]; passage 2) | Average Viable Cell Conc. ([5]; passage 3) | Average Viable Cell Conc. ([5]; passage 4) | other results
1 | CC(=O)O [Acetic Acid, acetic acid] | 13 | 9.6 10^5 cells/mL | 20 | 14.3 10^5 cells/mL | 10 | 7.2 10^5 cells/mL | 17 | 12.8 10^5 cells/mL |  |  |  |  |  |  |  |  |  |  |  |  | viability (in vitro [1]): 91%
2 | N [Ammonium Hydroxide, ammonium hydroxide] |  |  |  |  |  |  |  |  | 6.2 10^5 cells/mL | 8 | 8.4 10^5 cells/mL | 11 | 10.5 10^5 cells/mL | 14 | 9.1 10^5 cells/mL | 12 | 4.1 10^5 cells/mL | 1.4 10^5 cells/mL | 2.7 10^5 cells/mL | 5.1 10^5 cells/mL | viability at 7 min, 23.8 mM (in vitro [3]): 91%; Fold Increase in number of viable cells ([5]; passage 1): 13; Fold Increase in number of viable cells ([5]; passage 2): 4; Fold Increase in number of viable cells ([5]; passage 3): 8; Fold Increase in number of viable cells ([5]; passage 4): 16; viability at 22 min, 9.9 mM (in vitro [6]): 84%
3 | Cl [HCl, hydrochloric acid] | 14 | 10.9 10^5 cells/mL | 17 | 12.7 10^5 cells/mL | 12 | 9.0 10^5 cells/mL | 14 | 10.2 10^5 cells/mL |  |  |  |  |  |  |  |  |  |  |  |  | Average Cell Viability (mouse neurospheres [2]; passage 1): 91%; Average Cell Viability (mouse neurospheres [2]; passage 2): 92%; Average Cell Viability (mouse neurospheres [2]; passage 3): 92%; Average Cell Viability (mouse neurospheres [2]; passage 4): 89%
4 | [K+].[OH-] [KOH, potassium hydroxide] |  |  |  |  |  |  |  |  | 7.1 10^5 cells/mL | 9.4 | 8.7 10^5 cells/mL | 12 | 13.9 10^5 cells/mL | 18 | 19.0 10^5 cells/mL | 25 | 4.3 10^5 cells/mL | 1.8 10^5 cells/mL | 3.2 10^5 cells/mL | 4.4 10^5 cells/mL | Average Cell Viability (mouse neurospheres [4]; passage 1): 81%; Average Cell Viability (mouse neurospheres [4]; passage 2): 85%; Average Cell Viability (mouse neurospheres [4]; passage 3): 9%; Average Cell Viability (mouse neurospheres [4]; passage 4): 93%; Fold Increase in number of viable cells ([5]; passage 1): 14; Average Cell Viability ([5]; passage 1): 89%; Fold Increase in number of viable cells ([5]; passage 2): 6; Average Cell Viability ([5]; passage 2): 86%; Fold Increase in number of viable cells ([5]; passage 3): 10; Average Cell Viability ([5]; passage 3): 81%; Fold Increase in number of viable cells ([5]; passage 4): 14; Average Cell Viability ([5]; passage 4): 81%
5 | [Na+].[OH-] [NaOH, sodium hydroxide] |  |  |  |  |  |  |  |  | 8.7 10^5 cells/mL | 12 | 12.9 10^5 cells/mL | 17 | 8.8 10^5 cells/mL | 12 | 13.9 10^5 cells/mL | 18 | 3.6 10^5 cells/mL | 6.2 10^5 cells/mL | 7.5 10^5 cells/mL | 5.7 10^5 cells/mL | Fold Increase in number of viable cells ([5]; passage 1): 12; Fold Increase in number of viable cells ([5]; passage 2): 20; Fold Increase in number of viable cells ([5]; passage 3): 24; Fold Increase in number of viable cells ([5]; passage 4): 18
6 | O=P(O)(O)O [Phosphoric Acid, phosphoric acid] | 15 | 11.5 10^5 cells/mL | 23 | 17.3 10^5 cells/mL | 6 | 4.2 10^5 cells/mL | 16 | 11.8 10^5 cells/mL |  |  |  |  |  |  |  |  |  |  |  |  | viability (in vitro [1]): 91%
7 | O=C([O-])[O-].[Na+].[Na+] [Sodium Carbonate, sodium carbonate] |  |  |  |  |  |  |  |  | 7.7 10^5 cells/mL |  | 11.4 10^5 cells/mL |  | 11.1 10^5 cells/mL |  | 8.7 10^5 cells/mL |  | 3.7 10^5 cells/mL | 3.6 10^5 cells/mL | 7.7 10^5 cells/mL | 6.8 10^5 cells/mL | 
8 | O.O.O.O.O.O.O.O.O.O.O.O.O=P([O-])([O-])[O-].[Na+].[Na+].[Na+] [Sodium Phosphate, sodium phosphate tribasic dodecahydrate] |  |  |  |  |  |  |  |  | 11.5 10^5 cells/mL | 15 | 7.3 10^5 cells/mL | 10 | 13.9 10^5 cells/mL | 18 | 10.2 10^5 cells/mL | 14 | 4.2 10^5 cells/mL | 2.0 10^5 cells/mL | 4.1 10^5 cells/mL | 6.7 10^5 cells/mL | Average Cell Viability (mouse neurospheres [4]; passage 1): 87%; Average Cell Viability (mouse neurospheres [4]; passage 2): 89%; Average Cell Viability (mouse neurospheres [4]; passage 3): 89%; Average Cell Viability (mouse neurospheres [4]; passage 4): 93%; Fold Increase in number of viable cells ([5]; passage 1): 14; Average Cell Viability ([5]; passage 1): 88%; Fold Increase in number of viable cells ([5]; passage 2): 6; Average Cell Viability ([5]; passage 2): 91%; Fold Increase in number of viable cells ([5]; passage 3): 13; Average Cell Viability ([5]; passage 3): 87%; Fold Increase in number of viable cells ([5]; passage 4): 21; Average Cell Viability ([5]; passage 4): 84%
9 | O=S(=O)(O)O [Sulfuric Acid, sulfuric acid] | 14 | 10.5 10^5 cells/mL | 18 | 13.1 10^5 cells/mL | 8 | 6.1 10^5 cells/mL | 15 | 11.3 10^5 cells/mL |  |  |  |  |  |  |  |  |  |  |  |  | viability (in vitro [1]): 89%
